Activity calls are given as the source filed them. No cut-off for these calls is given here.
Legend:
[1] = Selectivity index, ratio of IC50 for HUVEC to IC50 for human PANC1 cells
MCF7 [2] = assay: Induction of apoptosis in human MCF7 cells assessed as necrotic cells at 5 uM after 48 hrs by annexin V-propidium iodide staining-based flow cytometry (reference value: 0.3%); format: functional
MCF7 [3] = assay: Cell cycle arrest in human MCF7 cells assessed as accumulation at G0/G1 phase at 10 uM after 48 hrs by propidium iodide staining-based flow cytometric method (reference value: 55.56 +/- 0.91%); format: functional
PANC-1 = assay: Antiproliferative activity against human PANC1 cells after 48 hrs by MTT assay; format: functional, cell-based; settings: PANC-1, 48 h
MCF7 [4] = assay: Induction of apoptosis in human MCF7 cells assessed as membrane blebbing at 5 to 15 uM after 24 hrs by Hoechst 33258 staining-based inverted microscopy; format: functional, cell-based
[5] = Selectivity index, ratio of IC50 for HUVEC to IC50 for human HCT116 cells
MCF7 [6] = assay: Induction of apoptosis in human MCF7 cells assessed as late apoptotic cells at 10 uM after 48 hrs by annexin V-propidium iodide staining-based flow cytometry (reference value: 0.1%); format: functional
MCF7 [7] = assay: Induction of apoptosis in human MCF7 cells assessed as cell distortion at 5 to 15 uM after 24 hrs by Hoechst 33258 staining-based inverted microscopy; format: functional
MCF7 [8] = assay: Cell cycle arrest in human MCF7 cells assessed as accumulation at G0/G1 phase at 15 uM after 48 hrs by propidium iodide staining-based flow cytometric method (reference value: 55.56 +/- 0.91%); format: functional
MCF7 [9] = assay: Induction of apoptosis in human MCF7 cells assessed as early apoptotic cells at 5 uM after 48 hrs by annexin V-propidium iodide staining-based flow cytometry (reference value: 3.2%); format: functional
MCF7 [10] = assay: Induction of apoptosis in human MCF7 cells assessed as viable cells at 10 uM after 48 hrs by annexin V-propidium iodide staining-based flow cytometry (reference value: 96.3%); format: functional; settings: MCF7, 48 h, read-out: Activity
MCF7 [11] = assay: Induction of apoptosis in human MCF7 cells assessed as early apoptotic cells at 10 uM after 48 hrs by annexin V-propidium iodide staining-based flow cytometry (reference value: 3.2%); format: functional
MCF7 [12] = assay: Induction of apoptosis in human MCF7 cells assessed as late apoptotic cells at 15 uM after 48 hrs by annexin V-propidium iodide staining-based flow cytometry (reference value: 0.1%); format: functional
MCF7 [13] = assay: Cell cycle arrest in human MCF7 cells assessed as accumulation at G0/G1 phase at 5 uM after 48 hrs by propidium iodide staining-based flow cytometric method (reference value: 55.56 +/- 0.91%); format: functional
MCF7 [14] = assay: Induction of apoptosis in human MCF7 cells assessed as viable cells at 5 uM after 48 hrs by annexin V-propidium iodide staining-based flow cytometry (reference value: 96.3%); format: functional; settings: MCF7, 48 h, read-out: Activity
[15] = Selectivity index, ratio of IC50 for HUVEC to IC50 for human HepG2 cells
MCF7 [16] = assay: Induction of apoptosis in human MCF7 cells assessed as membrane shrinkage at 5 to 15 uM after 24 hrs by Hoechst 33258 staining-based inverted microscopy; format: functional, cell-based
MCF7 [17] = assay: Cell cycle arrest in human MCF7 cells assessed as accumulation at G2/M phase at 15 uM after 48 hrs by propidium iodide staining-based flow cytometric method (reference value: 24.16 +/- 2.29%); format: functional
HCT-116 = assay: Antiproliferative activity against human HCT116 cells after 48 hrs by MTT assay; format: functional, cell-based; settings: HCT-116, 48 h
MCF7 [18] = assay: Induction of apoptosis in human MCF7 cells assessed as late apoptotic cells at 5 uM after 48 hrs by annexin V-propidium iodide staining-based flow cytometry (reference value: 0.1%); format: functional
HepG2 = assay: Antiproliferative activity against human HepG2 cells after 48 hrs by MTT assay; format: functional, cell-based; settings: HepG2, 48 h
MCF7 [19] = assay: Induction of apoptosis in human MCF7 cells assessed as necrotic cells at 10 uM after 48 hrs by annexin V-propidium iodide staining-based flow cytometry (reference value: 0.3%); format: functional
MCF7 [20] = assay: Induction of apoptosis in human MCF7 cells assessed as early apoptotic cells at 15 uM after 48 hrs by annexin V-propidium iodide staining-based flow cytometry (reference value: 3.2%); format: functional
MCF7 [21] = assay: Antiproliferative activity against human MCF7 cells after 48 hrs by MTT assay; format: functional, cell-based; settings: MCF7, 48 h
MCF7 [22] = assay: Cell cycle arrest in human MCF7 cells assessed as accumulation at G2/M phase at 5 uM after 48 hrs by propidium iodide staining-based flow cytometric method (reference value: 24.16 +/- 2.29%); format: functional
MCF7 [23] = assay: Induction of apoptosis in human MCF7 cells after 48 hrs by annexin V-propidium iodide staining-based flow cytometry; format: functional, cell-based
MCF7 [24] = assay: Induction of apoptosis in human MCF7 cells assessed as viable cells at 15 uM after 48 hrs by annexin V-propidium iodide staining-based flow cytometry (reference value: 96.3%); format: functional; settings: MCF7, 48 h, read-out: Activity
MCF7 [25] = assay: Induction of apoptosis in human MCF7 cells assessed as cell rounding up at 5 to 15 uM after 24 hrs by Hoechst 33258 staining-based inverted microscopy; format: functional
HUVEC = assay: Antiproliferative activity against HUVEC after 48 hrs by MTT assay; format: cell-based; settings: Homo sapiens
[26] = Selectivity index, ratio of IC50 for HUVEC to IC50 for human MCF7 cells
MCF7 [27] = assay: Cell cycle arrest in human MCF7 cells assessed as accumulation at G2/M phase at 10 uM after 48 hrs by propidium iodide staining-based flow cytometric method (reference value: 24.16 +/- 2.29%); format: functional
MCF7 [28] = assay: Induction of apoptosis in human MCF7 cells assessed as necrotic cells at 15 uM after 48 hrs by annexin V-propidium iodide staining-based flow cytometry (reference value: 0.3%); format: functional

COc1ccc2oc(=O)c(C(=O)C(F)(F)F)c(Nc3ccc4c(c3)OCO4)c2c1
Ratio IC50 [1]: 5.09
Activity (MCF7 [2]): 1.1%
Activity (MCF7 [3]): 30.15%
IC50 (PANC-1): 5.16 µM
Activity (MCF7 [4]): Active
Ratio IC50 [5]: 5.94
Activity (MCF7 [6]): 1.9%
Activity (MCF7 [7]): Active
Activity (MCF7 [8]): 21.93%
Activity (MCF7 [9]): 16.3%
viability at 10 µM (MCF7 [10]): 76.3%
Activity (MCF7 [11]): 20.2%
Activity (MCF7 [12]): 4.7%
Activity (MCF7 [13]): 45.12%
viability at 5 µM (MCF7 [14]): 81.3%
Ratio IC50 [15]: 4.82
Activity (MCF7 [16]): Active
Activity (MCF7 [17]): 63.06%
IC50 (HCT-116): 4.42 µM
Activity (MCF7 [18]): 1.3%
IC50 (HepG2): 5.45 µM
Activity (MCF7 [19]): 1.6%
Activity (MCF7 [20]): 32.1%
IC50 (MCF7 [21]): 16.6 µM
Activity (MCF7 [22]): 26.13%
Activity (MCF7 [23]): Dose-dependent effect
viability at 15 µM (MCF7 [24]): 59.9%
Activity (MCF7 [25]): Active
IC50 (HUVEC): 26.3 µM
Ratio IC50 [26]: 1.59
Activity (MCF7 [27]): 41.93%
Activity (MCF7 [28]): 3.3%

Reference: ChEMBL document CHEMBL4002629, “Design, synthesis and biological evaluation of novel 3-substituted 4-anilino-coumarin derivatives as antitumor agents” (Bioorg Med Chem Lett, 2017)
